pIC50: −log10 of the molar value.
How the values were obtained:
5HT2 receptors = target: T1, 5HT2 receptors (Rattus norvegicus, UniProt P14842); test: 5HT2 binding in rat frontal cortex (radioligand binding, [3H]ketanserin); conditions: rat frontal cortex membrane fraction; 1 nM [3H]ketanserin; pIC50 = −log IC50, IC50 in M
T1 construct: 5HT2 receptors were measured in a rat frontal cortex membrane fraction; from tissue; host or cells: Wistar rat frontal cortex membrane fraction
Method: (§1) 5HT2 receptors were measured by radioligand binding studies either in homogenates from rat brains or in a membranes fraction prepared from L929sA cells (mouse fibro carcinoma cells), stably transfected with human 5HT2A receptor cDNA.
5HT2 Binding in Rat Frontal Cortex
5HT2 receptors were measured in a rat frontal cortex membrane fraction. Herefore wistar rats were killed by decapitation, brains were removed and frontal cortex was dissected. The frontal cortex was homogenized in Tris-HCL buffer 50 mM pH7.7. The homogenate was centrifuged at 23.000 g for 10 minutes. The resulting pellet was washed twice by resuspension and recentrifugation and the pellet was finally suspended in Tris-HCL buffer 50 mM pH7.7 in a dilution of 100 (vol/wet weight of tissue). 400 μl of the homogenate was incubated with 1 nM [^3H]ketanserin in a total incubation volume of 0.5 ml for 30 minutes at 37° C. The incubation was stopped by rapid filtration using a manual filtration manifold. The filters were rinsed twice with ice-cold buffer and were counted in a liquid scintillation counter. Non-specific binding was determined in the presence of 1 μM methysergide.
(§2) Counting data from assays in the presence of test compound were automatically expressed as percent of total binding measured in the absence of test compound. Therefrom, the pIC50 (−log IC50)-values (IC50=concentration in M inhibiting 50% of the specific radioligand binding or neurotransmitter uptake) were derived and are listed in Table 9 (a “-” means “not measured”).

human 5HT2A receptor = target: T2, human 5HT2A receptor (Homo sapiens, UniProt P28223); test: 5HT2A binding in L929sA cells (radioligand binding, 125I ligand); conditions: membranes of L929sA cells expressing human 5HT2A receptors; 0.1 nM 125I radioligand; pIC50 = −log IC50, IC50 in M
T2 construct: expressed in transfected cells; host or cells: L929sA cells (mouse fibro carcinoma cells), stably transfected, induced with m-interferon-b
T2 sequence (P28223 whole entry): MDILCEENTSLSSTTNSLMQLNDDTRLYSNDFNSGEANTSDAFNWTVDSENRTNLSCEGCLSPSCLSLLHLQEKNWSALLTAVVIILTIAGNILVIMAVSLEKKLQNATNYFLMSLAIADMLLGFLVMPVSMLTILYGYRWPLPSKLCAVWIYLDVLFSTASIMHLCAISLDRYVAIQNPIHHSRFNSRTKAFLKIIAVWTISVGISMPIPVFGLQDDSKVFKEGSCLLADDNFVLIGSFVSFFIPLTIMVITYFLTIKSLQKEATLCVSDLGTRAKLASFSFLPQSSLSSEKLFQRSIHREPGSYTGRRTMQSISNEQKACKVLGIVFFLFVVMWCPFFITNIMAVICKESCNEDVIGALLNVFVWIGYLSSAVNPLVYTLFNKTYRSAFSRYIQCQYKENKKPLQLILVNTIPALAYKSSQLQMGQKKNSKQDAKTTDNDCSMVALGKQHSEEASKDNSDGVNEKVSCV
Method: as §1
5HT2A Binding in L929sA Cells
L929sA cells expressing human 5HT2A receptors were cultured in Petri dishes in DMEM medium (Gibco cat.nr. 41965-039) enriched with 5% heat inactivated fetal calf serum and in the presence of penicillin and streptomycin sulphate. 24 h before collection, cells were induced with m-interferon-b (1000 U/ml medium). Cells were collected by scrapping and centrifugation at low speed (5 minutes at 1500 g). The cells were homogenized and centrifuged for 10 minutes at 23.000 g. The resulting pellet was diluted in Tris-HCl 50 mM pH 7.7 and stored at −70° C. On the day of the experiment, a vial was thawed and diluted in Tris-HCl buffer. 5HT2A receptors are labeled with 0.1 nM [^125I] 4-amino-N-[1-[3-(4-fluorophenoxy)propyl]-4-methyl-4-piperidinyl]-2-methoxybenzamide dihydrate. Membranes (0.2 ml) were incubated with the radioligand for 60 minutes at 37° C. in a total volume of 0.25 ml. The reaction was stopped by rapid filtration and the filter rounds were counted in an auto-gamma spectrophotometer.
as §2

T1 sequence (P14842 whole entry): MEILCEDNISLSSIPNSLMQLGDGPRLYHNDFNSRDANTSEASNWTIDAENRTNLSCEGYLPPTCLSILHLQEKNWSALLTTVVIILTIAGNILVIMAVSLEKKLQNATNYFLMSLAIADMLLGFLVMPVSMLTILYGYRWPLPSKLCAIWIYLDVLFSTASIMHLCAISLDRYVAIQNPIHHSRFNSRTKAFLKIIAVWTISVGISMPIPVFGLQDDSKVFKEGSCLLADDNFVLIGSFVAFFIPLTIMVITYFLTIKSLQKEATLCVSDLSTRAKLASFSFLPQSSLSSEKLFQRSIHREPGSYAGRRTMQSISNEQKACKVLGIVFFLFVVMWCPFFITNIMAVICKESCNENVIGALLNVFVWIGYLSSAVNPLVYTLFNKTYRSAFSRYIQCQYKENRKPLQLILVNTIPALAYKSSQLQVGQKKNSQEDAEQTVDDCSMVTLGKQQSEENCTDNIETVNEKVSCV

Row | Compound | pIC50 (5HT2 receptors) | pIC50 (human 5HT2A receptor) | 5HT2A-binding (human 5HT2A receptor)
1 | Cc1nc2n(c(=O)c1CCN1CCc3[nH]c4cc(Cl)ccc4c3C1)CCCC2 [Compound 10] | 7.59 | 6.34 | 
2 | Cc1nc2n(c(=O)c1CCN1CCc3c(c4ccccc4n3-c3ccccc3)C1)CCS2 [Compound 86] |  | 8.34 | 
3 | Cc1nc(N)n(C)c(=O)c1CCN1CCc2[nH]c3ccccc3c2C1 [Compound 100] | 8.30 |  | 
4 | Cc1ccn2c(=O)c(CCN3CCc4[nH]c5cc(Cl)ccc5c4C3)c(C)nc2c1 [Compound 22] |  | 6.20 | 
5 | COc1cccn2c(=O)c(CCN3CCc4[nH]c5cc(Cl)ccc5c4C3)c(C)nc12 [Compound 20, 3-[2-(7-chloro-1,3,4,5-tetrahydro-2H-pyrido[4,3-b]indol-2-yl)ethyl]-9-methoxy-2-4-H-pyrido[1,2-a]pyrimidin-4-one] |  | 6.50 | 
6 | Cc1nc2n(c(=O)c1CCN1CCc3[nH]c4ccc(Cl)cc4c3C1)CCCC2 [Compound 27] | 8.55 |  | 
7 | Cc1ccc2[nH]c3c(c2c1)CN(CCc1c(C)nc2scc(C)n2c1=O)CC3 [Compound 32] | 9.40 | 8.35 | 
8 | COc1ccc2[nH]c3c(c2c1)CN(CCc1c(C)nc2n(c1=O)CCCC2)CC3 [Compound 52] | 7.54 | 7.31 | 
9 | Fc1ccc2[nH]c3c(c2c1)CN(CCCCNc1nc2ccccc2s1)CC3 [Compound 108, N-2-benzothiazolyl-8-fluoro-1,3,4,5,-tetrahydro-2H-pyrido[4,3-b]indole-2-butanamine] | 6.26 |  | 
10 | Cc1nc2n(c(=O)c1CCN1CCc3c(c4ccccc4n3-c3ccccc3)C1)CCCC2 [Compound 89] |  | 8.16 | 
11 | Cc1ccc2nc(C)c(CCN3CCc4[nH]c5cc(Cl)ccc5c4C3)c(=O)n2c1 [Compound 16] |  | 6.90 | 
12 | Cc1nc2sccn2c(=O)c1CCN1CCc2[nH]c3cc(Cl)ccc3c2C1 [Compound 7] | 8.12 | 7.64 | 
13 | Cc1nc2ccc(Cl)cn2c(=O)c1CCN1CCc2[nH]c3cc(Cl)ccc3c2C1 [Compound 17] |  | 6.60 | 
14 | Cc1nc2n(c(=O)c1CCN1CCc3c(c4cc(F)ccc4n3-c3ccc(F)cc3)C1)CCS2 [Compound 67] | 8.74 | 8.36 | 
15 | Cc1nc2n(c(=O)c1CCN1CCc3[nH]c4ccc(Cl)cc4c3C1)CCCS2 [Compound 24] | 8.71 | 8.07 | 
16 | Cc1nc2ccc(Br)cn2c(=O)c1CCN1CCc2[nH]c3cc(Cl)ccc3c2C1 [Compound 14] |  | 6.38 | 
17 | Cc1ccc2[nH]c3c(c2c1)CN(CCc1c(C)nc2n(c1=O)CCCC2)CC3 [Compound 36] |  | 6.50 | 
18 | Cc1nc2ccccn2c(=O)c1CCN1CCc2[nH]c3cc(Cl)ccc3c2C1 [Compound 9] | 8.02 | 7.24 | 
19 | Cc1nc2n(c(=O)c1CCN1CCc3[nH]c4ccc(F)cc4c3C1)CCCC2 [Compound 4] | 7.90 |  | 
20 | Cc1nc2n(c(=O)c1CCN1CCc3[nH]c4cc(Cl)ccc4c3C1)CCS2 [Compound 12] |  | 6.21 | 
21 | Cc1nc2ccccn2c(=O)c1CCN1CCc2[nH]c3ccc(F)cc3c2C1 [Compound 1] | 8.41 | 7.88 | 
22 | Cc1nc2scc(C)n2c(=O)c1CCN1CCc2[nH]c3ccc(Cl)cc3c2C1 [Compound 23] | 9.00 | 8.63 | 

Row | Compound | pIC50 (5HT2 receptors) | pIC50 (human 5HT2A receptor) | 5HT2A-binding (human 5HT2A receptor)
23 | Cc1nc2n(c(=O)c1CCN1CCc3[nH]c4ccc(Cl)cc4c3C1)CCS2 [Compound 26] |  | 8.21 | 
24 | Cc1nc2sccn2c(=O)c1CCN1CCc2[nH]c3ccc(Cl)cc3c2C1 [Compound 25] |  | 8.48 | 
25 | Cc1nc2ccccn2c(=O)c1CCN1CCc2[nH]c3ccc(Cl)cc3c2C1 [Compound 28] | 8.91 | 8.12 | 
26 | COc1ccc2[nH]c3c(c2c1)CN(CCc1c(C)nc2ccccn2c1=O)CC3 [Compound 53] | 7.75 | 7.63 | 
27 | Cc1nc2n(c(=O)c1CCN1CCc3[nH]c4ccccc4c3C1)CCS2 [Compound 41] | 7.84 |  | 
28 | Cc1nc2c(C)cccn2c(=O)c1CCN1CCc2[nH]c3cc(Cl)ccc3c2C1 [Compound 13] |  | 5.83 | 
29 | Cc1nc2sccn2c(=O)c1CCN1CCc2[nH]c3ccc(F)cc3c2C1 [Compound 6] | 9.00 | 8.19 | 
30 | Cc1nc2ccccn2c(=O)c1CCN1CCc2[nH]c3ccccc3c2C1 [Compound 37] | 8.49 | 7.35 | 
31 | Cc1nc2n(c(=O)c1CCN1CCc3[nH]c4ccc(F)cc4c3C1)CCCS2 [Compound 2, 7-[2-(8-fluoro-1,3,4,5-tetrahydro-2H-pyrido[4,3-b]indol-2-yl)ethyl]-3,4-dihydro-8-methyl-2H,6H-pyrimido[2,1-b][1,3]-thiazin-6-one] | 7.44 |  | 
32 | Cc1nc2scc(C)n2c(=O)c1CCN1CCc2[nH]c3cc(Cl)ccc3c2C1 [Compound 8] | 8.37 | 8.01 | 
33 | Cc1nc2c(Cl)cc(C(F)(F)F)cn2c(=O)c1CCN1CCc2[nH]c3cc(Cl)ccc3c2C1 [Compound 15] |  | 5.00 | 
34 | Cc1ccc2[nH]c3c(c2c1)CN(CCc1c(C)nc2sccn2c1=O)CC3 [Compound 30] | 8.79 | 8.08 | 
35 | Cc1nc2scc(C)n2c(=O)c1CCN1CCc2[nH]c3ccccc3c2C1 [Compound 39] | 8.58 | 8.30 | 
36 | Cc1nc2scc(C)n2c(=O)c1CCN1CCc2c(c3cc(F)ccc3n2-c2ccc(F)cc2)C1 [Compound 68] |  | 8.18 | 
37 | Cc1nc2ccccn2c(=O)c1CCN1CCc2c(c3ccccc3n2Cc2ccccc2)C1 [Compound 69] | 7.95 |  | 
38 | Cc1ccc2[nH]c3c(c2c1)CN(CCc1c(C)nc2n(c1=O)CCCC2)CC3 [Compound 35] | 8.43 |  | 
39 | Cc1nc2n(c(=O)c1CCN1CCc3[nH]c4cc(Cl)ccc4c3C1)CCCS2 [Compound 11] |  | 6.24 | 
40 | Cc1ccc2[nH]c3c(c2c1)CN(CCc1c(C)nc2n(c1=O)CCCS2)CC3 [Compound 33] | 8.35 |  | 
41 | Cc1cc(C)n2c(=O)c(CCN3CCc4[nH]c5cc(Cl)ccc5c4C3)c(C)nc2c1.O=C(O)/C=C/C(=O)O [Compound 18] |  |  | 5.6
42 | Cc1nc2scc(C)n2c(=O)c1CCN1CCc2[nH]c3ccc(F)cc3c2C1 [Compound 5] |  | 8.51 | 
43 | Cc1nc2sccn2c(=O)c1CCN1CCc2[nH]c3ccccc3c2C1 [Compound 38] | 8.09 | 7.90 | 

Source: US6506768B2, “Tetrahydro γ-carbolines” (Janssen Pharmaceutica N.V., priority 1997, dated 2003)
